Data taken from US11083707B2, “Substituted indoline derivatives as dengue viral replication inhibitors” (JANSSEN PHARMACEUTICALS, INC., priority 2017, dated 2021).

Key:
in vitro = details: African green monkey
DENV-2 16681 strain = assay: DENV-2 antiviral assay (eGFP fluorescence, Vero cells); assay type: cell-based, Dengue virus; details: DENV-2 16681 eGFP, MOI 0.5, 3 days
Description: The antiviral activity of all the compounds of the invention was tested against the DENV-2 16681 strain which was labeled with enhanced green fluorescent protein (eGPF). The culture medium consists of minimal essential medium supplemented with 2% of heat-inactivated fetal calf serum, 0.04% gentamycin (50 mg/mL) and 2 mM of L-glutamine. Vero cells, obtained from ECACC, were suspended in culture medium and 25 μL was added to 384-well plates (2500 cells/well), which already contain the antiviral compounds. Typically, these plates contain a 5-fold serial dilution of 9 dilution steps of the test compound at 200 times the final concentration in 100% DMSO (200 nL). […] Finally, each plate contains wells which are assigned as virus controls (containing cells and virus in the absence of compound), cell controls (containing cells in the absence of virus and compound) and medium controls (containing medium in the absence of cells, virus and compounds). To the wells assigned as medium control, 25 μL of culture medium was added instead of Vero cells. Once the cells were added to the plates, the plates were incubated for 30 minutes at room temperature to allow the cells to distribute evenly within the wells. Next, the plates were incubated in a fully humidified incubator (37° C., 5% CO2) until the next day. Then, DENV-2 strain 16681, labeled with eGFP, was added at a multiplicity of infection (MOI) of 0.5. Therefore, 15 μL of virus suspension was added to all the wells containing test compound and to the wells assigned as virus control. In parallel, 15 μL of culture medium was added to the medium and cell controls. Next, the plates were incubated for 3 days in a fully humidified incubator (37° C., 5% CO2). At the day of the read out, the eGFP fluorescence was measured using an automated fluorescence microscope at 488 nm (blue laser). Using an in-house LIMS system, inhibition dose response curves for each compound were calculated and the half maximal effective concentration (EC50) was determined. Therefore, the percent inhibition (I) for every test concentration is calculated using the following formula: I=100*(ST-SCC)/(SVC-SCC), ST, SCC and SVC are the amount of eGFP signal in the test compound, cell control and virus control wells, respectively. The EC50 represents the concentration of a compound at which the virus replication is inhibited with 50%, as measured by a 50% reduction of the eGFP fluorescent intensity compared to the virus control. The EC50 is calculated using linear interpolation (Table 1).

Vero cells = details: African green monkey
[1] = Dengue virus, DENV2, Vero, 72 h

## COc1cc(NC(C(=O)N2CCc3ccc(C(F)(F)F)cc32)c2ccc(F)cc2OCCO)cc(-n2cncn2)c1 (racemic) [Compound 1, 2-(4-fluoro-2-(2-hydroxyethoxy)phenyl)-2-((3-methoxy-5-(1H-1,2,4-triazol-1-yl)phenyl)amino)-1-(6-(trifluoromethyl)indolin-1-yl)ethanone]
In vitro
  CC50: 12000 nM
DENV-2 16681 strain; [1]
  EC50: 3.1 nM

## COc1cc(NC(C(=O)N2CCc3cc(OC)c(C(F)(F)F)cc32)c2ccc(F)cc2OCCO)cc(-n2cncn2)c1 (racemic) [Compound 2, 2-(4-fluoro-2-(2-hydroxyethoxy)phenyl)-2-((3-methoxy-5-(1H-1,2,4-triazol-1-yl)phenyl)amino)-1-(5-methoxy-6-(trifluoromethyl)indolin-1-yl)ethanone]
In vitro
  CC50: 13000 nM
DENV-2 16681 strain; [1]
  EC50: 2.8 nM

## COc1cc(NC(C(=O)N2CCc3ccc(OC(F)(F)F)cc32)c2ccc(F)cc2OCCO)cc(-n2cncn2)c1 (racemic) [Compound 3, 2-(4-fluoro-2-(2-hydroxyethoxy)phenyl)-2-((3-methoxy-5-(1H-1,2,4-triazol-1-yl)phenyl)amino)-1-(6-(trifluoromethoxy)indolin-1-yl)ethanone]
In vitro
  CC50: 8500 nM
DENV-2 16681 strain; [1]
  EC50: 1.9 nM

## COc1cc(NC(C(=O)N2CCc3cc(OC)c(C(F)(F)F)cc32)c2ccc(Cl)cc2OCCO)cc(-n2cncn2)c1 (racemic) [Compound 5, 2-(4-chloro-2-(2-hydroxyethoxy)phenyl)-2-((3-methoxy-5-(1H-1,2,4-triazol-1-yl)phenyl)amino)-1-(5-methoxy-6-(trifluoromethyl)indolin-1-yl)ethanone]
In vitro
  CC50: 11000 nM
DENV-2 16681 strain; [1]
  EC50: 0.82 nM

## COc1cc(NC(C(=O)N2CCc3ccc(OC(F)(F)F)cc32)c2ccc(Cl)cc2OCCO)cc(-n2cncn2)c1 (racemic) [Compound 6, 2-(4-chloro-2-(2-hydroxyethoxy)phenyl)-2-((3-methoxy-5-(1H-1,2,4-triazol-1-yl)phenyl)amino)-1-(6-(trifluoromethoxy)indolin-1-yl)ethanone]
In vitro
  CC50: 3300 nM
DENV-2 16681 strain; [1]
  EC50: 0.97 nM

## COc1cc(NC(C(=O)N2CCc3cc(F)c(C(F)(F)F)cc32)c2ccc(Cl)cc2OCCO)cc(-n2cncn2)c1 (racemic) [Compound 7, 2-(4-chloro-2-(2-hydroxyethoxy)phenyl)-1-(5-fluoro-6-(trifluoromethyl)indolin-1-yl)-2-((3-methoxy-5-(1H-1,2,4-triazol-1-yl)phenyl)amino)ethanone]
In vitro
  CC50: 10000 nM
DENV-2 16681 strain; [1]
  EC50: 3 nM

## COc1cc(NC(C(=O)N2CCc3cc(OC)c(OC(F)(F)F)cc32)c2ccc(Cl)cc2OCCO)cc(-n2cncn2)c1 (racemic) [Compound 8, 2-(4-chloro-2-(2-hydroxyethoxy)phenyl)-2-((3-methoxy-5-(1H-1,2,4-triazol-1-yl)phenyl)amino)-1-(5-methoxy-6-(trifluoromethoxy)indolin-1-yl)ethanone]
In vitro
  CC50: 9500 nM
DENV-2 16681 strain; [1]
  EC50: 2.1 nM

## COc1cc(NC(C(=O)N2CCc3cc(F)c(OC(F)(F)F)cc32)c2ccc(Cl)cc2OCCO)cc(-n2cncn2)c1 (racemic) [Compound 9, 2-(4-chloro-2-(2-hydroxyethoxy)phenyl)-1-(5-fluoro-6-(trifluoromethoxy)indolin-1-yl)-2-((3-methoxy-5-(1H-1,2,4-triazol-1-yl)phenyl)amino)ethanone]
In vitro
  CC50: 3900 nM
DENV-2 16681 strain; [1]
  EC50: 1.6 nM

## COc1cc(NC(C(=O)N2CCc3c(C)cc(OC(F)(F)F)cc32)c2ccc(Cl)cc2OCCO)cc(-n2cncn2)c1 (racemic) [Compound 10, 2-(4-chloro-2-(2-hydroxyethoxy)phenyl)-2-((3-methoxy-5-(1H-1,2,4-triazol-1-yl)phenyl)amino)-1-(4-methyl-6-(trifluoromethoxy)indolin-1-yl)ethanone]
In vitro
  CC50: 10000 nM
DENV-2 16681 strain; [1]
  EC50: 0.35 nM

## COc1cc(NC(C(=O)N2CCc3ccc(C(F)(F)F)cc32)c2ccc(Cl)cc2OCCCC(=O)O)cc(-n2cncn2)c1 (racemic) [Compound 11, 4-(5-chloro-2-(1-((3-methoxy-5-(1H-1,2,4-triazol-1-yl)phenyl)amino)-2-oxo-2-(6-(trifluoromethyl)indolin-1-yl)ethyl)phenoxy)butanoic acid]
In vitro
  CC50: 15000 nM
DENV-2 16681 strain; [1]
  EC50: 0.31 nM

## COc1cc(NC(C(=O)N2CCc3cc(OC)c(C(F)(F)F)cc32)c2ccc(Cl)cc2OCCCC(=O)O)cc(-n2cncn2)c1 (racemic) [Compound 12, 4-(5-chloro-2-(1-((3-methoxy-5-(1H-1,2,4-triazol-1-yl)phenyl)amino)-2-(5-methoxy-6-(trifluoromethyl)indolin-1-yl)-2-oxoethyl)phenoxy)butanoic acid]
In vitro
  CC50: 13000 nM
DENV-2 16681 strain; [1]
  EC50: 2.2 nM

## COc1cc(NC(C(=O)N2CCc3ccc(OC(F)(F)F)cc32)c2ccc(Cl)cc2OCCCC(=O)O)cc(-n2cncn2)c1 (racemic) [Compound 13, 4-(5-chloro-2-(1-((3-methoxy-5-(1H-1,2,4-triazol-1-yl)phenyl)amino)-2-oxo-2-(6-(trifluoromethoxy)indolin-1-yl)ethyl)phenoxy)butanoic acid]
In vitro
  CC50: 11000 nM
DENV-2 16681 strain; [1]
  EC50: 0.23 nM

## COc1cc(NC(C(=O)N2CCc3ccc(OC(F)(F)F)cc32)c2ccc(Cl)cc2OCCC(C)(C)C(=O)O)cc(-n2cncn2)c1 (racemic) [Compound 14, 4-(5-chloro-2-(1-((3-methoxy-5-(1H-1,2,4-triazol-1-yl)phenyl)amino)-2-oxo-2-(6-(trifluoromethoxy)indolin-1-yl)ethyl)phenoxy)-2,2-dimethylbutanoic acid]
In vitro
  CC50: 10000 nM
DENV-2 16681 strain; [1]
  EC50: 0.41 nM

## COc1cc(NC(C(=O)N2CCc3cc(F)c(OC(F)(F)F)cc32)c2ccc(Cl)cc2OCCCC(=O)O)cc(-n2cncn2)c1 (racemic) [Compound 15, 4-(5-chloro-2-(2-(5-fluoro-6-(trifluoromethoxy)indolin-1-yl)-1-((3-methoxy-5-(1H-1,2,4-triazol-1-yl)phenyl)amino)-2-oxoethyl)phenoxy)butanoic acid]
In vitro
  CC50: 11000 nM
DENV-2 16681 strain; [1]
  EC50: 0.22 nM

## COc1cc(NC(C(=O)N2CCc3ccc(C(F)(F)F)cc32)c2ccc(F)cc2OCCO)cc(-n2cncn2)c1 (single isomer, unassigned) [Compound 1A]
In vitro
  CC50: 7700 nM
DENV-2 16681 strain
  EC50: 1000 nM

## COc1cc(NC(C(=O)N2CCc3cc(OC)c(C(F)(F)F)cc32)c2ccc(F)cc2OCCO)cc(-n2cncn2)c1 (single isomer, unassigned) [Compound 2A]
In vitro
  CC50: 12000 nM
DENV-2 16681 strain
  EC50: 270 nM

## COc1cc(NC(C(=O)N2CCc3ccc(OC(F)(F)F)cc32)c2ccc(F)cc2OCCO)cc(-n2cncn2)c1 (single isomer, unassigned) [Compound 3A]
In vitro
  CC50: 11000 nM
DENV-2 16681 strain
  EC50: 520 nM

## COc1cc(NC(C(=O)N2CCc3ccc(C(F)(F)F)cc32)c2ccc(Cl)cc2OCCO)cc(-n2cncn2)c1 (single isomer, unassigned) [Compound 4A]
In vitro
  CC50: 7800 nM
DENV-2 16681 strain
  EC50: 1200 nM

## COc1cc(NC(C(=O)N2CCc3cc(OC)c(C(F)(F)F)cc32)c2ccc(Cl)cc2OCCO)cc(-n2cncn2)c1 (single isomer, unassigned) [Compound 5A]
In vitro
  CC50: 11000 nM
DENV-2 16681 strain
  EC50: 42 nM

## COc1cc(NC(C(=O)N2CCc3ccc(OC(F)(F)F)cc32)c2ccc(Cl)cc2OCCO)cc(-n2cncn2)c1 (single isomer, unassigned) [Compound 6B]
Vero cells
  CC50: 7300 nM
DENV-2 16681 strain
  EC50: 92 nM

## COc1cc(NC(C(=O)N2CCc3cc(F)c(C(F)(F)F)cc32)c2ccc(Cl)cc2OCCO)cc(-n2cncn2)c1 (single isomer, unassigned) [Compound 7A]
In vitro
  CC50: 11000 nM
DENV-2 16681 strain
  EC50: 430 nM

## COc1cc(NC(C(=O)N2CCc3c(C)cc(OC(F)(F)F)cc32)c2ccc(Cl)cc2OCCO)cc(-n2cncn2)c1 (single isomer, unassigned) [Compound 10A]
In vitro
  CC50: 10000 nM
DENV-2 16681 strain
  EC50: 63 nM

## COc1cc(NC(C(=O)N2CCc3ccc(C(F)(F)F)cc32)c2ccc(Cl)cc2OCCCC(=O)O)cc(-n2cncn2)c1 (single isomer, unassigned) [Compound 11A]
In vitro
  CC50: 11000 nM
DENV-2 16681 strain
  EC50: 45 nM

## COc1cc(NC(C(=O)N2CCc3ccc(OC(F)(F)F)cc32)c2ccc(Cl)cc2OCCC(C)(C)C(=O)O)cc(-n2cncn2)c1 (single isomer, unassigned) [Compound 14A]
In vitro
  CC50: 9100 nM
DENV-2 16681 strain
  EC50: 420 nM

## COc1cc(NC(C(=O)N2CCc3cc(F)c(OC(F)(F)F)cc32)c2ccc(Cl)cc2OCCCC(=O)O)cc(-n2cncn2)c1 (single isomer, unassigned) [Compound 15A]
In vitro
  CC50: 10000 nM
DENV-2 16681 strain
  EC50: 5.3 nM

## COc1cc(NC(C(=O)N2CCc3c(C)cc(OC(F)(F)F)cc32)c2ccc(Cl)cc2OCCCC(=O)O)cc(-n2cncn2)c1 (single isomer, unassigned) [Compound 16A]
In vitro
  CC50: 11000 nM
DENV-2 16681 strain
  EC50: 14 nM
